Here are results for 16 compounds from patent publication US11319324B2, “Pyrazolo-pyrrolo-pyrimidine-dione derivatives as P2X3 inhibitors” (Bayer Aktiengesellschaft, priority 2017, dated 2022).

What all share (assay type): cell-based
One assay has as its target T1, human P2X2/3 receptors (Homo sapiens, UniProt P56373+Q9UBL9).
T1 construct: expressed in transfected cells; host or cells: human astrocytoma 1321N1 (1312N1 [sic])
T1 sequence (P56373 1-397): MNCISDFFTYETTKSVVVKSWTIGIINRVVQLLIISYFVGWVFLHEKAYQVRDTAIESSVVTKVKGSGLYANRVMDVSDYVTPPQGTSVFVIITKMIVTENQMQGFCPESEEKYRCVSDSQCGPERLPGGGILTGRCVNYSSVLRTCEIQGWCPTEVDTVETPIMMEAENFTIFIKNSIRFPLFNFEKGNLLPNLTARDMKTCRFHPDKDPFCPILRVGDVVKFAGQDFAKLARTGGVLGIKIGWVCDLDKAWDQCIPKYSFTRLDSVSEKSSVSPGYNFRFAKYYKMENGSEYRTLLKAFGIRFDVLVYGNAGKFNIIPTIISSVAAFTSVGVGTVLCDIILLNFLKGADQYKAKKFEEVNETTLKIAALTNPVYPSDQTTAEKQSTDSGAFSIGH
T1 sequence (Q9UBL9 1-471): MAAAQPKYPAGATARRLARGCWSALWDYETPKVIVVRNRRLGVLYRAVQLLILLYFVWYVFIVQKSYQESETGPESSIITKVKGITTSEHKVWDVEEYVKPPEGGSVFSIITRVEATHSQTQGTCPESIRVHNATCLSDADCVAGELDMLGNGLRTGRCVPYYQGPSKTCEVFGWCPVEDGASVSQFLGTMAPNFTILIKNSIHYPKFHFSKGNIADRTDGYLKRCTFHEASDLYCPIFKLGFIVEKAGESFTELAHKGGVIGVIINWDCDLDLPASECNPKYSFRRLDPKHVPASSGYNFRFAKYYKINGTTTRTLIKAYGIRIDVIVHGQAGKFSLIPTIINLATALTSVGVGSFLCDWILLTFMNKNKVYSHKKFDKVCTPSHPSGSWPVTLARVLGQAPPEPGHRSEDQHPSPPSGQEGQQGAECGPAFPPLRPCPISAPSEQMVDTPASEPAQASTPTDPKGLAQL
As to the kind of experiment: Intracellular calcium measurement, antagonist activity at human P2X2/3 receptors (hP2X23 1321N1), Fluo8. As to conditions: for IC50: column 4); 1321N1 cells, human P2X2/3, Fluo8, agonist ATP at EC50; read-out: 4) hP2X2/3 IC50 [nM] (1321N1); for hP2X23/hP2X3* Selectivity (1321N1): ratio of column 4) hP2X2/3 to column 3) hP2X3, 1321N1. How it is done:
(§1) 3) And 4) Intracellular Calcium Measurement to Compare Antagonist Activity at Human P2X3 Receptors (hP2X3 1321N1) and at Human P2X2/3 Receptors (hP2X23 1321N1)
(§2) The comparison of antagonistic activity at the P2X3 versus the P2X2/3 receptor of the compounds of the invention were performed by use of recombinant cell lines. These cell lines derived originally from the human astrocytoma cell line […] (Macintyre E H, Pontén J, Vatter A E. Acta Pathol Microbiol Scand A. 1972; 80(2):267-83). The cell lines are stably transfected with the human P2X3 receptor forming homotrimeric P2X3 receptors or are co-transfected with P2X2 and P2X3 forming heterotrimeric P2X2/3 receptors. Stimulation of the receptors with the agonist ATP leads to a conformational change of the receptors and influx of extracellular calcium ions through the open ion channel. The cytoplasmatic calcium transient is detected via the calcium sensitive dye Fluo8. The strength of Fluo8 fluorescence signal corresponds to the level of receptor activation. An inhibitor would decrease the signal depending on its potency and concentration. Fluorescence was measured by use of a suitable fluorescence reader.
(§3) On the day before the assay, the cells were plated in culture medium (DMEM high glucose, 10% FCS, 1% MEM non-essential amino acids, 4 mM Glutamax) in 384-well poly-D-lysine coated microtiter plates and kept in a cell incubator (96% humidity, 5% v/v CO2, 37° C.). On the day of the assay medium was exchanged by Fluo8 containing buffer and incubated for 60 minutes. Test compounds were added at various concentrations and plates were incubated for 10 minutes. In the fluorescence reader a 3 seconds baseline measurement was performed and the agonist ATP was applied at EC50 concentration of the respective receptor during constant fluorescence measurement for 120 seconds.

For assay [1], the target named is T2, human P2X3 receptor (Homo sapiens, UniProt P56373).
T2 sequence (P56373 1-397): T1 sequence (P56373 1-397)
The assay can be described thus: Intracellular calcium measurement, antagonist activity at human P2X3 receptors (hP2X3 1321N1), Fluo8. The arrangement: expressed in transfected cells; host or cells: human astrocytoma 1321N1 (1312N1 [sic]). Particulars: column 3); 1321N1 cells, human P2X3, Fluo8, agonist ATP at EC50. How it is done:
as §1, §2, §3

Assay [2] deals with T2, human P2X3 receptor. The assay can be described thus: Intracellular calcium measurement to assess antagonist activity at human P2X3 receptors (hP2X3 CHO), photina luminescence. Details: expressed in transfected cells; host or cells: Chinese hamster ovary (CHO) cells. As to conditions: column 2), CHO cells, agonist α,β-methylene-ATP at EC50. A digest of the protocol: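 Antagonism read as lowered photina luminescence after agonist stimulation in recombinant hP2X3/photina CHO cells. Cells seeded one day earlier (30 °C) and reconstituted with 5 μg/ml coelenterazine in 2 mM Ca-tyrode buffer for 3 h at 37 °C before measurement.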

Molecules are shown by their SMILES. Where only a bound is given, the exact number is not on record here.

Turning to `CC(C)N1Cc2c(n(CC(=O)Nc3ccc(F)cn3)c3cc(C4CCOC4)nn3c2=O)C1=O` (racemic) [Example 228, 2-{5,8-dioxo-2-[(±)-oxolan-3-yl]-6-(propan-2-yl)-5,6,7,8-tetrahydro-4H-pyrazolo[1,5-a]pyrrolo[3,4-d]pyrimidin-4-yl}-N-(5-fluoropyridin-2-yl)acetamide], the results for the IC50 on human P2X2/3 receptors, on human P2X3 receptor [1] and at human P2X3 receptor [2] were more than 23500 nM, 20 nM and 95 nM, respectively. The “hP2X23/hP2X3* Selectivity (1321N1)” value on human P2X2/3 receptors was more than 1175.

As to `CC(C)N1Cc2c(n(CC(=O)Nc3ccc(F)cn3)c3cc(C4CCNC4)nn3c2=O)C1=O.Cl` (racemic) [Example 235, 2-{5,8-dioxo-6-(propan-2-yl)-2-[(±)-pyrrolidin-3-yl]-5,6,7,8-tetrahydro-4H-pyrazolo[1,5-a]pyrrolo[3,4-d]pyrimidin-4-yl}-N-(5-fluoropyridin-2-yl)acetamide hydrochloride (1:1)], the figures for the IC50 on human P2X2/3 receptors, on human P2X3 receptor [1] and on human P2X3 receptor [2] were more than 66000 nM, 340 nM and 155 nM, respectively. For the same compound, the “hP2X23/hP2X3* Selectivity (1321N1)” value on human P2X2/3 receptors is recorded as more than 194.

With `CCc1cc2n(CC(=O)Nc3ccc(F)cn3)c3c(c(=O)n2n1)CN(C1CCNC1)C3=O.Cl` (racemic) [Example 236, 2-{2-ethyl-5,8-dioxo-6-[(±)-pyrrolidin-3-yl]-5,6,7,8-tetrahydro-4H-pyrazolo[1,5-a]pyrrolo[3,4-d]pyrimidin-4-yl}-N-(5-fluoropyridin-2-yl)acetamide hydrochloride (1:1)], the results for the IC50 at human P2X2/3 receptors, on human P2X3 receptor [1] and on human P2X3 receptor [2] were more than 32000 nM, 1280 nM and 615 nM, respectively. The “hP2X23/hP2X3* Selectivity (1321N1)” value at human P2X2/3 receptors is given as more than 25.

As for `CC(C)N1Cc2c(n(CC(=O)Nc3ccc(F)cn3)c3cc(C4CCN(C)C4)nn3c2=O)C1=O` (racemic) [Example 249, N-(5-fluoropyridin-2-yl)-2-{2-[(±)-1-methylpyrrolidin-3-yl]-5,8-dioxo-6-(propan-2-yl)-5,6,7,8-tetrahydro-4H-pyrazolo[1,5-a]pyrrolo[3,4-d]pyrimidin-4-yl}acetamide], the IC50 on human P2X2/3 receptors worked out at 9200 nM; at human P2X3 receptor [1], 109 nM; at human P2X3 receptor [2], 305 nM. Further, on human P2X2/3 receptors, the “hP2X23/hP2X3* Selectivity (1321N1)” value is on record as 85.

Consider `CC(C)N1Cc2c(n(CC(=O)Nc3ccc(F)cn3)c3cc(C4CCN(S(C)(=O)=O)C4)nn3c2=O)C1=O` (racemic) [Example 270, N-(5-fluoropyridin-2-yl)-2-{2-[(±)-1-(methylsulfonyl)pyrrolidin-3-yl]-5,8-dioxo-6-(propan-2-yl)-5,6,7,8-tetrahydro-4H-pyrazolo[1,5-a]pyrrolo[3,4-d]pyrimidin-4-yl}acetamide], for which the values for the IC50 at human P2X2/3 receptors, at human P2X3 receptor [1] and at human P2X3 receptor [2] were 6650 nM, 57 nM and 29 nM, respectively. Moreover, on human P2X2/3 receptors, the “hP2X23/hP2X3* Selectivity (1321N1)” value is 118.

Regarding `CCc1cc2n(CC(=O)Nc3ccc(F)cn3)c3c(c(=O)n2n1)CN(C1CCN(C(=O)NC(C)C)C1)C3=O` (racemic) [Example 274, (±)-3-[2-ethyl-4-{2-[(5-fluoropyridin-2-yl)amino]-2-oxoethyl}-5,8-dioxo-5,8-dihydro-4H-pyrazolo[1,5-a]pyrrolo[3,4-d]pyrimidin-6(7H)-yl]-N-(propan-2-yl)pyrrolidine-1-carboxamide], the IC50 is more than 32000 nM on human P2X2/3 receptors, 125 nM on human P2X3 receptor [1] and 187 nM at human P2X3 receptor [2]. Also, the “hP2X23/hP2X3* Selectivity (1321N1)” value on human P2X2/3 receptors was more than 256.

Consider `CC(O)c1cc2n(CC(=O)Nc3ccc(F)cn3)c3c(c(=O)n2n1)CN(C(C)C)C3=O` (racemic) [Example 275, N-(5-fluoropyridin-2-yl)-2-{2-[(±)-1-hydroxyethyl]-5,8-dioxo-6-(propan-2-yl)-5,6,7,8-tetrahydro-4H-pyrazolo[1,5-a]pyrrolo[3,4-d]pyrimidin-4-yl}acetamide], for which the IC50 at human P2X2/3 receptors is more than 32000 nM; at human P2X3 receptor [1] it was 210 nM; on human P2X3 receptor [2], 173 nM. Moreover, the “hP2X23/hP2X3* Selectivity (1321N1)” value at human P2X2/3 receptors was more than 152.

Take `CCc1cc2n(CC(=O)Nc3ccc(F)cn3)c3c(c(=O)n2n1)CN(C1CCNC1)C3=O` (single isomer, unassigned) [Example 277, 2-{2-ethyl-5,8-dioxo-6-[pyrrolidin-3-yl]-5,6,7,8-tetrahydro-4H-pyrazolo[1,5-a]pyrrolo[3,4-d]-pyrimidin-4-yl}-N-(5-fluoropyridin-2-yl)acetamide]: the IC50 on human P2X2/3 receptors was found to be 7300 nM; on human P2X3 receptor [1] it was 110 nM; at human P2X3 receptor [2] it was 150 nM. Also, the “hP2X23/hP2X3* Selectivity (1321N1)” value on human P2X2/3 receptors is recorded as 66.

For the compound `CCc1cc2n(CC(=O)Nc3ccc(F)cn3)c3c(c(=O)n2n1)CN(C1CCNC1)C3=O` (single isomer, unassigned) [Example 278, 2-{2-ethyl-5,8-dioxo-6-[pyrrolidin-3-yl]-5,6,7,8-tetrahydro-4H-pyrazolo[1,5-a]pyrrolo[3,4-d]pyrimidin-4-yl}-N-(5-fluoropyridin-2-yl)acetamide], the IC50 on human P2X2/3 receptors was more than 32000 nM; on human P2X3 receptor [1], 675 nM; on human P2X3 receptor [2] it was 650 nM. Further, the “hP2X23/hP2X3* Selectivity (1321N1)” value on human P2X2/3 receptors is more than 47.

On to `CC(C)N1Cc2c(n(CC(=O)Nc3ccc(F)cn3)c3cc(C4CC4)nn3c2=O)C1=O` [Example 56], for which the IC50 on human P2X2/3 receptors was 9950 nM; on human P2X3 receptor [1], 185 nM; on human P2X3 receptor [2], 73 nM. Moreover, on human P2X2/3 receptors, the “hP2X23/hP2X3* Selectivity (1321N1)” value was found to be 54.

In the case of `COCc1cc2n(CC(=O)Nc3ccc(F)cn3)c3c(c(=O)n2n1)CN(C(C)C)C3=O` [Example 57], the IC50 was more than 32000 nM at human P2X2/3 receptors, 265 nM at human P2X3 receptor [1] and 125 nM at human P2X3 receptor [2]. In addition, the “hP2X23/hP2X3* Selectivity (1321N1)” value on human P2X2/3 receptors is given as more than 121.

With `CC(C)N1Cc2c(n(CC(=O)Nc3ccc(F)cn3)c3cc(C4CCOCC4)nn3c2=O)C1=O` [Example 58], the IC50 at human P2X2/3 receptors was 9850 nM; at human P2X3 receptor [1], 36 nM; at human P2X3 receptor [2] it was 24 nM. The “hP2X23/hP2X3* Selectivity (1321N1)” value on human P2X2/3 receptors worked out at 277.

Turning to `Cc1ccc(NC(=O)Cn2c3c(c(=O)n4nc(C5CCOCC5)cc24)CN(C(C)C)C3=O)nc1` [Example 59], the IC50 on human P2X2/3 receptors stood at 13000 nM; at human P2X3 receptor [1] it was 145 nM; at human P2X3 receptor [2], 83 nM. In addition, on human P2X2/3 receptors, the “hP2X23/hP2X3* Selectivity (1321N1)” value was 90.

In the case of `CCc1cc2n(CC(=O)Nc3ccc(Cl)cn3)c3c(c(=O)n2n1)CN(CC1CCOC1)C3=O` (stereo not shown) [Example 60], the IC50 was more than 19800 nM at human P2X2/3 receptors, 480 nM at human P2X3 receptor [1] and 105 nM at human P2X3 receptor [2]. Further, the “hP2X23/hP2X3* Selectivity (1321N1)” value on human P2X2/3 receptors is on record as more than 41.

For `CCc1cc2n(CC(=O)Nc3ccc(C)cn3)c3c(c(=O)n2n1)CN(CC1CCOC1)C3=O` (stereo not shown) [Example 61], the IC50 is more than 23000 nM on human P2X2/3 receptors, 1930 nM at human P2X3 receptor [1] and 695 nM on human P2X3 receptor [2]. Besides, the “hP2X23/hP2X3* Selectivity (1321N1)” value at human P2X2/3 receptors is reported as more than 12.

Turning to `CCc1cc2n(CC(=O)Nc3ccc(Cl)cn3)c3c(c(=O)n2n1)CN(CC1CCCO1)C3=O` (stereo not shown) [Example 62], the figures for the IC50 at human P2X2/3 receptors, on human P2X3 receptor [1] and on human P2X3 receptor [2] were 5150 nM, 240 nM and 55 nM, respectively. For the same compound, the “hP2X23/hP2X3* Selectivity (1321N1)” value at human P2X2/3 receptors was 21.
